Laboratory results as given in patent US8507464B2, “Phosphoramidate alkylator prodrugs” (Threshold Pharmaceuticals, Inc., priority 2005, dated 2013).
Like-named read-outs stand apart in the source and are kept apart here.

Columns and labels:
NCI-H460 cells [1] = test: Antiproliferation assay - oxygen dependence; format: cell-based, human; details: Homo sapiens
Text: . […] The calculated IC50 values (μM) are tabulated in Table Y1 (H460 cells) or Table Y2 (HT29 cells) below.

NCI-H460 cells [2] = test: Antiproliferation assay (Alamar Blue), anoxia vs air; details: Homo sapiens, NCI-H460, 2 h
DX-5 = test: Anti-proliferation assay, hypoxia vs normoxia (Table 1B)
in vivo = details: for half-life: t ½, mice
[3] = Plasma stability (Table 2B); details: at 20 min
MES-SA cells = test: Antiproliferation assay (Alamar Blue), anoxia vs air; details: Homo sapiens, 2 h
IRS1SF cells (XRCC3) = test: Antiproliferation assay - DNA mutant repair cells; details: Cricetulus griseus, 2 h
HT29 = test: Anti-proliferation assay, hypoxia vs normoxia (Table 1B); details: for IC50: Homo sapiens
CYP2D6 = CYP2D6 (Homo sapiens, UniProt P10635); test: in vitro; details: pH 7.4, probe dextromethorphan
CYP2D6, sequence (P10635 whole entry): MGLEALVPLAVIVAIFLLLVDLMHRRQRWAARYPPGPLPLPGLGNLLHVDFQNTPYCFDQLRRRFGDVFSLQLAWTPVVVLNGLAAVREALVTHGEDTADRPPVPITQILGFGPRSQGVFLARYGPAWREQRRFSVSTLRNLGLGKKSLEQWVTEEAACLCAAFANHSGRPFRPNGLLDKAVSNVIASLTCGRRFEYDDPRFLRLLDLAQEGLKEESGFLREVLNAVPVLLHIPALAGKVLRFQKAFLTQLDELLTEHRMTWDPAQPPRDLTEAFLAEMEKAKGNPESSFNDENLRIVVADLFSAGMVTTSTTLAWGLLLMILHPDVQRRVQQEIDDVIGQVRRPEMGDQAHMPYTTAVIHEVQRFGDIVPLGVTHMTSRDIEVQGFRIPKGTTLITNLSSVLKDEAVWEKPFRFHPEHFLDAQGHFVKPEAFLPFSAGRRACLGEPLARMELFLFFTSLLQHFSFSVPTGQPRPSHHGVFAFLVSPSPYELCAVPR
Description: (§1) A control reaction with no inhibitor was also prepared. After a suitable incubation at 37° C., the reactions were terminated by the addition of […] of 10% formic acid in water ([…] of acetonitrile for 2C19). […] Each assay was performed in duplicate.

CYP1A2 = CYP1A2 (Homo sapiens, UniProt P05177); test: in vitro; details: pH 7.4, probe phenacetin
CYP1A2, sequence (P05177 whole entry, species assumed): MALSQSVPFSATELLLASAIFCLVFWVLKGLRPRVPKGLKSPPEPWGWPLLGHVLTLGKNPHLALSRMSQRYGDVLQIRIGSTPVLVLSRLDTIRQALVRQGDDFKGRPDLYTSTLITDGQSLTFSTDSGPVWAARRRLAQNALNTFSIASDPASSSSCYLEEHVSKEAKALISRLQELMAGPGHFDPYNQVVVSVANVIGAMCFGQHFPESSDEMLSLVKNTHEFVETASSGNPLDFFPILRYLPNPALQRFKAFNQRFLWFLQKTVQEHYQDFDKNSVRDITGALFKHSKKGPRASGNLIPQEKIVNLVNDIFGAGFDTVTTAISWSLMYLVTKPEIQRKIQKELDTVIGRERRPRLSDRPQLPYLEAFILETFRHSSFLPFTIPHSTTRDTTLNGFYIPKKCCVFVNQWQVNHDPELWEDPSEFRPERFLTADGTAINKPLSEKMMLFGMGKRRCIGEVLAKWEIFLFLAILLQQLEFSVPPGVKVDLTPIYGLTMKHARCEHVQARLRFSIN
Description: as §1

CYP3A4 = CYP3A4 (Homo sapiens, UniProt P08684); test: in vitro
CYP3A4, sequence (P08684 whole entry): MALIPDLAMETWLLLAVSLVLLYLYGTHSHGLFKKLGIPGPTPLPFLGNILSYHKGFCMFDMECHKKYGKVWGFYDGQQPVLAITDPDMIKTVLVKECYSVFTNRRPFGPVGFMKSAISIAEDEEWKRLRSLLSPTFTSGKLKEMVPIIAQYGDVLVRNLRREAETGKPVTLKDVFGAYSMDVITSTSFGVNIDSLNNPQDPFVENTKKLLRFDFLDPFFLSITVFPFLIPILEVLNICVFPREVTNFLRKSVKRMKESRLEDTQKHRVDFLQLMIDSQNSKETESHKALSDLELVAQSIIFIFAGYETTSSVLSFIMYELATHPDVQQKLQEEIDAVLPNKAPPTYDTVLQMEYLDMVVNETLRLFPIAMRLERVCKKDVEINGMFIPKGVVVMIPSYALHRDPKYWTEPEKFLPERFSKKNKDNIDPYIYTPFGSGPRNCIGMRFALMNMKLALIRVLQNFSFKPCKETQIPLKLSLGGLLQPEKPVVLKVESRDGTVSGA
Description: as §1

[4] = tested on: H460 cells exposed as monolayers; test: Clonogenic survival of monolayer cells (Example 35); details: Homo sapiens, NCI-H460, 2 h
AA8 cells (wild type) = test: Antiproliferation assay - DNA mutant repair cells; details: Cricetulus griseus, CHO-AA8, 2 h
[5] = format: physicochemical; details: glassy carbon, Ag/AgCl reference
HT29 cells = test: Antiproliferation assay (Alamar Blue), anoxia vs air; details: Homo sapiens, HT-29, 2 h
UV41 cells (XPF) = test: Antiproliferation assay - DNA mutant repair cells; details: Cricetulus griseus, 2 h
[6] = tested on: H460 lung carcinoma spheroids; test: Spheroid model, clonogenic survival; details: Homo sapiens, NCI-H460, 2 h, read-out: IC90 H460 Spheroid 10% O2
HCT116 = test: Anti-proliferation assay, hypoxia vs normoxia (Table 1B); details: for IC50: Homo sapiens
MES-SA/Dx5 cells = test: Antiproliferation assay (Alamar Blue), anoxia vs air; details: Homo sapiens, MES-SA/Dx5, 2 h
UV135 cells (XPG) = test: Antiproliferation assay - DNA mutant repair cells; details: Cricetulus griseus, 2 h
UV41 = test: Clonogenic survival - DNA mutant repair cells; details: Cricetulus griseus
EM9 cells (XRCC1) = test: Antiproliferation assay - DNA mutant repair cells; details: Cricetulus griseus, 2 h
H460 cell line = test: Anti-proliferation assay, hypoxia vs normoxia (Table 1A); details: for IC50: Homo sapiens
PC3 cells = test: Clonogenic assay - oxygen dependence; details: Homo sapiens

**Q.** For `Cn1c(COP(=O)(NCCBr)NCCBr)cnc1[N+](=O)[O-]` [Compound 25], which IC50 (NCI-H460 cells [1]; NCI-H460, read-out: IC50 in H460 cells, 0.1% O2) is on record?
**A.** 1 µM

**Q.** What about the IC50 (NCI-H460 cells [1]; NCI-H460, read-out: IC50 in H460 cells, 0.3% O2) of the same compound?
**A.** 3 µM

**Q.** And the IC50 (NCI-H460 cells [1]; NCI-H460, read-out: IC50 in H460 cells, 0.6% O2)?
**A.** 5 µM

**Q.** And the IC50 (NCI-H460 cells [1]; NCI-H460, read-out: IC50 in H460 cells, 1% O2)?
**A.** 10 µM

**Q.** What about the IC50 (NCI-H460 cells [1]; NCI-H460, read-out: IC50 in H460 cells, 10% O2) of the same compound?
**A.** 25 µM

**Q.** And the IC50 (NCI-H460 cells [1]; NCI-H460, read-out: IC50 in H460 cells, Air)?
**A.** 55 µM

**Q.** What about the IC50 (NCI-H460 cells [1]; NCI-H460, read-out: IC50 in H460 cells, N2) of the same compound?
**A.** 0.1 µM

**Q.** And the IC50 (NCI-H460 cells [2]; read-out: IC50 H460 Air, air, 2 h exposure)?
**A.** 86 µM

**Q.** What about the IC50 (NCI-H460 cells [2]; read-out: IC50 H460 Anoxia, anoxia, 2 h exposure) of the same compound?
**A.** 0.15 µM

**Q.** What about the “DX-5 HCR” value (DX-5) of the same compound?
**A.** >100

**Q.** And the IC50 (DX-5; read-out: DX-5 P H (proliferation IC50, hypoxia))?
**A.** 1 µM

**Q.** What about the IC50 (DX-5; read-out: DX-5 P N (proliferation IC50, normoxic)) of the same compound?
**A.** > 100 µM

**Q.** What about the Cmax (in vivo; CD-1, Balb/c for Compound 1, mouse, ip) of the same compound?
**A.** 22900 ng/mL

**Q.** And the Cmax (in vivo; CD-1, Balb/c for Compound 1, mouse, iv)?
**A.** 27500 ng/mL

**Q.** What about the half-life (in vivo; CD-1, Balb/c for Compound 1, mouse, iv, intravenous administration in mice) of the same compound?
**A.** 6.6 min

**Q.** What about the half-life (in vivo; mouse, ip, intraperitoneal administration in mice (min)) of the same compound?
**A.** 11 min

**Q.** And the half-life (in vivo; mouse, ip, intraperitoneal administration in mice)?
**A.** 10.8 min

**Q.** And the half-life (in vivo; mouse, iv, intravenous administration in mice (min))?
**A.** 6.7 min

**Q.** What about the “Plasma stability (at 20 min)” value [3] of the same compound?
**A.** 102%

**Q.** What about the IC50 (MES-SA cells; read-out: IC50 MES-SA Air) of the same compound?
**A.** > 100 µM

**Q.** What about the IC50 (MES-SA cells; read-out: IC50 MES-SA Anoxia) of the same compound?
**A.** 0.9 µM

**Q.** And the IC50 (IRS1SF cells (XRCC3); read-out: IC50 IRS1SF Air)?
**A.** > 100 µM

**Q.** And the IC50 (IRS1SF cells (XRCC3); read-out: IC50 IRS1SF Anoxia)?
**A.** 2 µM

**Q.** What about the “HT29 HCR P” value (HT29) of the same compound?
**A.** >6

**Q.** What about the IC50 (HT29; HT-29, read-out: HT29 P H (proliferation IC50, hypoxia)) of the same compound?
**A.** 16 µM

**Q.** What about the IC50 (HT29; HT-29, read-out: HT29 P N (proliferation IC50, normoxic)) of the same compound?
**A.** > 100 µM

**Q.** What about the IC50 (CYP2D6) of the same compound?
**A.** > 50 µM

**Q.** And the IC50 (CYP1A2)?
**A.** > 50 µM

**Q.** And the IC50 (CYP3A4; pH 7.4, IC50 3A4 Midazolam, probe substrate midazolam)?
**A.** > 50 µM

**Q.** And the IC50 (CYP3A4; pH 7.4, IC50 3A4 Nifedipine, probe substrate nifedipine)?
**A.** > 50 µM

**Q.** And the IC50 (CYP3A4; pH 7.4, IC50 3A4 Testosterone, probe substrate testosterone)?
**A.** > 50 µM

**Q.** What about the IC90 ([4]; read-out: IC90 H460 Monolayer 0.6% O2) of the same compound?
**A.** 0.6 µM

**Q.** What about the IC90 ([4]; read-out: IC90 H460 Monolayer Air) of the same compound?
**A.** 20 µM

**Q.** And the IC90 ([4]; read-out: IC90 H460 Monolayer N2)?
**A.** 0.1 µM

**Q.** And the IC50 (AA8 cells (wild type); read-out: IC50 AA8 Air)?
**A.** > 100 µM

**Q.** What about the IC50 (AA8 cells (wild type); read-out: IC50 AA8 Anoxia) of the same compound?
**A.** 8 µM

**Q.** And the “Reduction Potentials, 100 mV/sec” value ([5]; scan rate 100 mV/sec)?
**A.** −594 mV

**Q.** And the “Reduction Potentials, 10,000 mV/sec” value ([5]; scan rate 10,000 mV/sec)?
**A.** −626 mV

**Q.** And the IC50 (HT29 cells; read-out: IC50 HT29 Air)?
**A.** > 100 µM

**Q.** What about the IC50 (HT29 cells; read-out: IC50 HT29 Anoxia) of the same compound?
**A.** 16 µM

**Q.** And the IC50 (UV41 cells (XPF); read-out: IC50 UV41 Air)?
**A.** 95 µM

**Q.** And the IC50 (UV41 cells (XPF); read-out: IC50 UV41 Anoxia)?
**A.** 0.2 µM

**Q.** And the IC90 [6]?
**A.** 15 µM

**Q.** What about the “HCT116 HCR” value (HCT116) of the same compound?
**A.** >100

**Q.** And the IC50 (HCT116; HCT-116, read-out: HCT116 P H (proliferation IC50, hypoxia))?
**A.** 0.9 µM

**Q.** And the IC50 (HCT116; HCT-116, read-out: HCT116 P N (proliferation IC50, normoxic))?
**A.** > 100 µM

**Q.** And the IC50 (MES-SA/Dx5 cells; read-out: IC50 MES-SA/Dx5 Air)?
**A.** > 100 µM

**Q.** What about the IC50 (MES-SA/Dx5 cells; read-out: IC50 MES-SA/Dx5 Anoxia) of the same compound?
**A.** 0.3 µM

**Q.** What about the IC50 (UV135 cells (XPG); read-out: IC50 UV135 Air) of the same compound?
**A.** > 100 µM

**Q.** And the IC50 (UV135 cells (XPG); read-out: IC50 UV135 Anoxia)?
**A.** 6 µM

**Q.** What about the IC90 (UV41; read-out: IC90 UV41 Air) of the same compound?
**A.** 17 µM

**Q.** What about the IC90 (UV41; read-out: IC90 UV41 N2) of the same compound?
**A.** 0.02 µM

**Q.** What about the IC50 (EM9 cells (XRCC1); read-out: IC50 EM9 Air) of the same compound?
**A.** > 100 µM

**Q.** And the IC50 (EM9 cells (XRCC1); read-out: IC50 EM9 Anoxia)?
**A.** 7 µM

**Q.** What about the IC50 (H460 cell line; NCI-H460, read-out: Hypoxia P (proliferation IC50)) of the same compound?
**A.** 0.05 µM

**Q.** And the IC50 (H460 cell line; NCI-H460, read-out: IC50 in cells under hypoxia)?
**A.** 0.05 µM

**Q.** What about the IC50 (H460 cell line; NCI-H460, read-out: Normoxia P (proliferation IC50)) of the same compound?
**A.** 50 µM

**Q.** What about the “fold more toxic in hypoxic cells than in normoxic cells” value (H460 cell line; anti-proliferation cytotoxicity assay) of the same compound?
**A.** 1000 fold

**Q.** And the “HCR P” value (H460 cell line; ratio of IC50 in normoxia and hypoxia)?
**A.** 1000

**Q.** What about the IC90 (PC3 cells; PC-3, read-out: IC90 PC3 Air) of the same compound?
**A.** 50 µM

**Q.** And the IC90 (PC3 cells; PC-3, read-out: IC90 PC3 N2)?
**A.** 0.3 µM
